Reference: patent publication US6933150B1, “Relationship of ABC transport proteins with hematopoietic stem cells and methods of use thereof” (priority 1998, dated 2005)

What was measured:
[1] = tested on: ABC transporter; test: SP cell analysis of mdr1a/1b knockout bone marrow cells treated with ABC transporter inhibitors; conditions: treatment before and during Hoechst 33342 staining
Description: Hoechst 33342 SP cell assay: Murine bone marrow cells were collected and resuspended at 1×10^6 cells/ml in DMEM plus 10 mM HEPES and 2%, FBS. In a water bath, the cells were allowed to equilibrate at 37° C., followed by addition of 5 μg/ml Hoechst 33342 (Fisher Scientific, Pittsburgh, Pa.) for 90 minutes as previously described [Goodell et al., J. Exp. Med., 183:1797-1806 (1996)]. Cells were then centrifuged at 4° C. and resuspended in ice cold HBSS plus 10 mM HEPES and 2% FBS at 1×10^7 cells/ml. For flow cytometric analysis or sorting, a Becton Dickinson FACS Vantage flow cytometer (Becton Dickinson, San Jose, Calif.) was configured for dual emission wavelength analysis as previously described [Goodell et al., J. Exp. Med., 183:1797-1806 (1996)]. Cells were gated based on forward and side light scatter to exclude debris. […] Cells were analyzed at approximately 5,000 cells/second until data from 1×10^6 cells were collected. The SP cell gate was defined based on normal fresh C57BL/6 bone marrow cells.
Cells were treated with either verapamil or 2-deoxyglucose. Verapamil is a competitive inhibitor of several known ABC transporters including MDR1, whereas 2-deoxyglucose is an inhibitor of ATP synthesis that depletes cellular ATP levels required for ABC transporter function.

[2] = tested on: myeloid progenitors; test: Drug-resistant myeloid progenitor (CFU-C) assay in methylcellulose; format: cell-based, mouse; conditions: 25 to 50 nM, thymidine phosphorylase-treated methylcellulose
Description: Ex vivo culture and expansion of myeloid progenitors: Following transduction (day 0), cells were cultured in the presence of the growth factor combination described above. Cells were resuspended at 1×10^6 cells/ml every 3-6 days for at least 12 days of expansion. Aliquots of cells were removed for CFU-C analysis at various time points.
Retroviral-mediated gene transfer into murine hematopoietic stem cells: BM cells were harvested from C57BL/6 or B6.Ch-1/By (referred to as “HW80”) congenic mouse strains (Jackson Laboratories, Bar Harbor, Me. ) by standard methods. Following isolation, cells were placed into liquid suspension culture in Dulbecco's Modified Eagle's Medium (DMEM) (BioWhittaker, Walkersville, Md.) with 1% penicillin/streptomycin (Gibco/BRL, Grand Island, N.Y.), 15% fetal bovine serum (FBS; Hyclone, Logan Utah), 20 ng/ml murine interleukin (IL)-3®& D Systems, Minneapolis, Minn.), 50 ng/ml human IL-6 (Amgen, Thousand Oaks, Calif.), and 50 ng/ml murine stem cell factor ® & D Systems). The cells were initially plated at 1×10^6 cells/ml in 10 mls of medium. Following pre-stimulation for 48 hours, cells were replated onto confluent monolayers of irradiated ecotropic producer cell lines. The bone marrow cells were plated at the same density used in the pre-stimulation phase and in the same medium with 6 μg/ml polybrene added. […]

SMILES | Effect on SP cell phenotype [1] | Killing of non-transduced background cells [2]
COc1ccc(CCN(C)CCCC(C#N)(c2ccc(OC)c(OC)c2)C(C)C)cc1OC (stereo not drawn) [verapamil] | eliminated phenotypically identifiable SP cells | –
O=CC[C@@H](O)[C@H](O)[C@H](O)CO [2-deoxyglucose] | eliminated phenotypically identifiable SP cells | –
COc1cc(NCc2ccc3nc(N)nc(N)c3c2C)cc(OC)c1OC [trimetrexate] | – | completely killed
